Measurements from US20090041719A1, “Method for screening therapeutic agent for glomerular disorder” (priority 2006, published 2009).

Columns and labels:
rBAT = test: HAT heavy chain rBAT on large-monocyte fraction of LPS-stimulated human PBMC, peak value by FACScan; assay type: cell-based
Method: In the same manner as in 1) to 5) of Experimental Example 1, to human peripheral blood mononuclear cells, the test compound (6-2) (final concentration: 10 nM) or the test compound (7-3) (final concentration: 100 nM) was added at the same time when LPS (final concentration: 80 μg/ml) was added, followed by 6-day culture. Further, in the same manner as above, using rabbit anti-human 4F2hc polyclonal antibodies (see Biol Pharm Bull 30:415-422, 2007) as a primary antibody, the peak value of HAT expressed on the fraction of large-macrophages (larger than monocyte macrophages) in human PBMC was measured by FACScan using a commercially available cell fix/cell membrane infiltration kit (trade name: BD Cytofix/Cytoperm™ Kit, catalog No. 554714, BD Biosciences).
As a control, the one with no test-compound addition was used, and as a rabbit anti-human rBAT (related to b^0,+-type amino acid transporter) polyclonal antibody, the one obtained by coupling a synthesized peptide composed of an amino-terminal of human rBAT (MAEDKSKRDSIEMSMKGC (SEQ ID NO: 2)) and a carboxyl-terminal of mouse b^0,+AT (BAT1) (CHLQMLEWPEKDPE (SEQ ID NO: 3)) to a carrier KLH (keyhole-limpet hemocyanin), and immunizing a rabbit with it.

[1] = test system: glomerular lesions; renal tubulointerstitial lesions; conditions: International Publication WO 2004/024185 and 01/72730 pamphlets; cited from earlier work

SMILES: O=C1CCC(F)(C(=O)OCc2ccccc2)O1 (stereo not drawn) [Compound (6-2)]
- Change in HAT expressed on large-monocyte fraction of human PBMC (peak value by FACScan), rBAT (rBAT; human PBMC + LPS 80 μg/ml, 6-day culture, test compound 10 nM, solvent control 37): 40
- amount of rBAT (in words) (rBAT; human PBMC + LPS, summary of Table 2): without any influence
- known action on glomerular lesions [1]: selectively inhibit the glomerular lesions
